According to ChEMBL document CHEMBL3603790, “2- and 3-Fluoro-3-deazaneplanocins, 2-fluoro-3-deazaaristeromycins, and 3-methyl-3-deazaneplanocin: Synthesis and antiviral properties” (Bioorg Med Chem, 2015):
Calls of active or inactive are those of the source. No cut-off for these calls is given here.

How the values were obtained:
Hepatitis B virus = assay: Antiviral activity against HBV infected in human HepG22.2.15 cells after 3 days by neutral red dye-based plaque reduction assay; assay type: functional, organism-based; conditions: HepG2 2.2.15, 72 h
MDCK = assay: (§1) Cytotoxicity against MDCK cells; assay type: cell-based, Canis lupus familiaris; conditions: dog, mdck
Human alphaherpesvirus 1 = assay: Antiviral activity against Human herpesvirus 1 infected in HEL cells after 3 days by neutral red dye-based plaque reduction assay; assay type: functional, organism-based
Enterovirus C = assay: Antiviral activity against Poliovirus infected in monkey LLC-MK2 cells after 3 days by neutral red dye-based plaque reduction assay; assay type: functional, organism-based
Dengue virus = assay: Antiviral activity against Dengue virus infected in African green monkey Vero cells after 3 days by neutral red dye-based plaque reduction assay; assay type: functional, organism-based
West Nile virus = assay: Antiviral activity against WNV infected in African green monkey Vero 76 cells after 3 days by neutral red dye-based plaque reduction assay; assay type: functional, organism-based
HeLa = assay: Cytotoxicity against human HeLa cells; assay type: cell-based
Measles morbillivirus = assay: Antiviral activity against Measles virus infected in African green monkey CV1 cells after 3 days by neutral red dye-based plaque reduction assay; assay type: functional, organism-based; conditions: CV-1, 72 h
[1] = Selectivity index, ratio of CC50 for African green monkey Vero cells to IC50 for Yellow fever virus; assay type: functional
[2] = Cytotoxicity against African green monkey Vero 76 cells; assay type: cell-based; conditions: chlorocebus sabaeus; for Activity: vero 76
Influenza A virus [3] = assay: Antiviral activity against Influenza A virus H1N1 infected in MDCK cells after 3 days by neutral red dye-based plaque reduction assay; assay type: functional, organism-based
[4] = Cytotoxicity against monkey MA104 cells; assay type: cell-based, Macaca mulatta; conditions: rhesus monkey
Human betaherpesvirus 5 = assay: Antiviral activity against HCMV infected in HFF after 3 days by neutral red dye-based plaque reduction assay; assay type: functional, organism-based; conditions: Human betaherpesvirus 5, 72 h
[5] = tested on: Respiratory syncytial virus; assay: Antiviral activity against Respiratory syncytial virus infected in monkey MA104 cells after 3 days by neutral red dye-based plaque reduction assay; assay type: functional, organism-based
SARS-CoV = assay: Antiviral activity against SARS coronavirus infected in African green monkey Vero E6 cells after 3 days by neutral red dye-based plaque reduction assay; assay type: functional, organism-based; conditions: Severe acute respiratory syndrome-related coronavirus
[6] = Inhibition of rabbit erythrocytic AdoHcy hydrolase using AdoHcy as substrate assessed as formation of L-homocysteine preincubated for 5 mins followed by substrate addition measured after 1 hr by thiol quantitation reagent-based assay; design: species or system Oryctolagus cuniculus
[7] = tested on: Venezuelan equine encephalitis virus; assay: Antiviral activity against Venezuelan equine encephalitis virus infected in African green monkey Vero cells after 3 days by neutral red dye-based plaque reduction assay; assay type: functional, organism-based
[8] = tested on: Respiratory syncytial virus; assay: Antiviral activity against Respiratory syncytial virus infected in human HeLa cells after 3 days by neutral red dye-based plaque reduction assay; assay type: functional, organism-based
[9] = Cytotoxicity against human Ava5 cells; assay type: cell-based
[10] = Selectivity index, ratio of CC50 for African green monkey CV1 cells to IC50 for Measles virus; assay type: functional, CV-1
HEL = assay: Cytotoxicity against HEL cells; assay type: cell-based; conditions: human
Yellow fever virus = assay: Antiviral activity against Yellow fever virus infected in African green monkey Vero cells after 3 days by neutral red dye-based plaque reduction assay; assay type: functional, organism-based; conditions: 72 h
[11] = Cytotoxicity against African green monkey Vero cells; assay type: cell-based; conditions: chlorocebus sabaeus, Vero cells
[12] = Selectivity index, ratio of CC50 for HFF to IC50 for HCMV; assay type: functional
[13] = Cytotoxicity against African green monkey Vero E6 cells; assay type: cell-based; conditions: chlorocebus sabaeus
[14] = Cytotoxicity against African green monkey CV1 cells; assay type: cell-based, CV-1; conditions: chlorocebus aethiops
[15] = Selectivity index, ratio of CC50 for human HepG2(2.2.1) cells to IC50 for HBV; assay type: functional
LLC-MK2 = assay: Cytotoxicity against monkey LLC-MK2 cells; assay type: cell-based, Macaca mulatta; conditions: rhesus monkey
Vaccinia virus = assay: Antiviral activity against Vaccinia virus infected in HEL cells after 3 days by neutral red dye-based plaque reduction assay; assay type: functional, organism-based; conditions: Orthopoxvirus vaccinia
Hepatitis C virus = assay: Antiviral activity against Hepatitis C virus infected in human Ava5 cells after 3 days by neutral red dye-based plaque reduction assay; assay type: functional, organism-based; conditions: Hepacivirus hominis
Human alphaherpesvirus 2 = assay: Antiviral activity against Human herpesvirus 2 infected in HEL cells after 3 days by neutral red dye-based plaque reduction assay; assay type: functional, organism-based
[16] = Cytotoxicity against human […] cells; assay type: cell-based
[17] = Cytotoxicity against HFF; assay type: cell-based; conditions: human, HFF cells
Rift Valley fever virus = assay: Antiviral activity against Rift Valley fever virus infected in African green monkey Vero 76 cells after 3 days by neutral red dye-based plaque reduction assay; assay type: functional, organism-based
[18] = Selectivity index, ratio of CC50 for African green monkey Vero cells to IC50 for Dengue virus; assay type: functional
Influenza A virus [19] = assay: Antiviral activity against Influenza A virus H5N1 infected in MDCK cells after 3 days by neutral red dye-based plaque reduction assay; assay type: functional, organism-based; conditions: 72 h
[20] = as §1; assay type: cell-based, Canis lupus familiaris; conditions: dog, MDCK cells
[21] = Selectivity index, ratio of CC50 for MDCK cells to IC50 for Influenza A virus H5N1 virus; assay type: functional
Cowpox virus = assay: Antiviral activity against Cowpox virus infected in HFF after 3 days by neutral red dye-based plaque reduction assay; assay type: functional, organism-based
[22] = Cytotoxicity against African green monkey Vero 76 cells relative to control; assay type: cell-based; conditions: chlorocebus sabaeus
Enterovirus = assay: Antiviral activity against Rhinovirus infected in human HeLa Ohio-1 cells after 3 days by neutral red dye-based plaque reduction assay; assay type: functional, organism-based
[23] = Cytotoxicity against MDCK cells relative to control; assay type: cell-based, Canis lupus familiaris; conditions: dog
MA104 = assay: Antiviral activity against Parainfluenza virus infected in monkey MA104 cells after 3 days by neutral red dye-based plaque reduction assay; assay type: functional, cell-based; conditions: Paramyxoviridae
Influenza A virus [24] = assay: Antiviral activity against Influenza A virus H3N2 infected in MDCK cells after 3 days by neutral red dye-based plaque reduction assay; assay type: functional, organism-based
Influenza B virus = assay: Antiviral activity against Influenza B virus infected in MDCK cells after 3 days by neutral red dye-based plaque reduction assay; assay type: functional, organism-based; conditions: 72 h
Tacaribe virus = assay: Antiviral activity against Tacaribe virus infected in African green monkey Vero 76 cells after 3 days by neutral red dye-based plaque reduction assay; assay type: functional, organism-based; conditions: Mammarenavirus tacaribeense
[25] = Cytotoxicity against human HeLa Ohio-1 cells; assay type: cell-based
[26] = Selectivity index, ratio of CC50 for African green monkey Vero 76 cells to IC50 for Tacaribe virus; assay type: functional
[27] = Cytotoxicity against African green monkey Vero cells relative to control; assay type: cell-based; conditions: chlorocebus sabaeus
[28] = Selectivity index, ratio of CC50 for African green monkey Vero 76 cells to IC50 for Rift Valley fever virus; assay type: functional
unidentified adenovirus = assay: Antiviral activity against Adenovirus infected in human A549 cells after 3 days by neutral red dye-based plaque reduction assay; assay type: functional, organism-based
A549 = assay: Cytotoxicity against human A549 cells; assay type: cell-based
[29] = Selectivity index, ratio of CC50 for MDCK cells to IC50 for Influenza B virus; assay type: functional

Nc1nc(F)cc2c1ncn2[C@@H]1C=C(CO)[C@@H](O)[C@H]1O
IC50 (Hepatitis B virus): 0.67 µM
Activity (MDCK): Non-toxic
Activity (Human alphaherpesvirus 1): inactive
Activity (Enterovirus C): inactive
Activity (Dengue virus): inactive
Activity (West Nile virus): inactive
Activity (HeLa): Non-toxic
IC50 (Measles morbillivirus): 8.5 µM
Ratio CC50/IC50 [1]: >50
Activity [2]: Non-toxic
Activity (Influenza A virus [3]): inactive
Activity [4]: Non-toxic
IC50 (Human betaherpesvirus 5): 8.7 µM
Activity [5]: inactive
Activity (SARS-CoV): inactive
IC50 [6]: 1.4 µM
Activity [7]: inactive
Activity [8]: inactive
Activity [9]: Non-toxic
Ratio CC50/IC50 [10]: >12
Activity (HEL): Non-toxic
IC50 (Yellow fever virus): 6.8 µM
CC50 [11]: > 100 µM
Ratio CC50/IC50 [12]: 25
Activity [13]: Non-toxic
CC50 [14]: > 100 µM
Ratio CC50/IC50 [15]: 17
Activity (LLC-MK2): Non-toxic
Activity (Vaccinia virus): inactive
Activity (Hepatitis C virus): inactive
Activity (Human alphaherpesvirus 2): inactive
CC50 [16]: 11 µM
CC50 [17]: 218 µM
Activity (Rift Valley fever virus): inactive

Nc1ncc(F)c2c1ncn2[C@@H]1C=C(CO)[C@@H](O)[C@H]1O
Ratio CC50/IC50 [18]: 5
IC50 (Influenza A virus [19]): 1 µM
CC50 [20]: 32.5 µM
IC50 (Dengue virus; 72 h): 7.1 µM
Activity (West Nile virus): inactive
Activity (HeLa): Non-toxic
Ratio CC50/IC50 [21]: 34
Activity (Cowpox virus): inactive
CC50 ([2]; Vero 76 cells): 36 µM
CC50 [22]: 114 µM
Activity (Influenza A virus [3]): inactive
Activity [4]: Non-toxic
Activity (Enterovirus): inactive
IC50 (Human betaherpesvirus 5): 0.3 µM
Activity [5]: inactive
CC50 [23]: > 357 µM
Activity (SARS-CoV): inactive
IC50 [6]: 0.0068 µM
Activity (MA104): inactive
Activity [7]: inactive
Activity (Influenza A virus [24]): inactive
IC50 (Influenza B virus): < 0.36 µM
Activity [8]: inactive
IC50 (Tacaribe virus; 72 h): < 0.36 µM
Activity [25]: Non-toxic
Activity (HEL): Non-toxic
IC50 (Yellow fever virus): > 224 µM
Ratio CC50/IC50 [26]: >317
CC50 [27]: 35.7 µM
CC50 [11]: 224 µM
Ratio CC50/IC50 [12]: > 1040
Activity [13]: Non-toxic
Activity (Vaccinia virus): inactive
Ratio CC50/IC50 [28]: 5.6
Activity (unidentified adenovirus): inactive
CC50 [17]: > 300 µM
Activity (A549): Non-toxic
Ratio CC50/IC50 [29]: >1000
IC50 (Rift Valley fever virus; 72 h): 6.4 µM

Nc1cc2nc[nH]c2c(=O)[nH]1 [DEZAGUANINE]
IC50 (Measles morbillivirus): 4.1 µM
CC50 [14]: 250 µM

Nc1nc2c(ncn2COC(CO)CO)c(=O)[nH]1 [GANCICLOVIR]
IC50 (Human betaherpesvirus 5): 3.6 µM
CC50 [17]: > 100 µM

Nc1nc(F)cc2c1ncn2[C@@H]1C[C@H](CO)[C@@H](O)[C@H]1O
Activity (Dengue virus): inactive
Activity (West Nile virus): inactive
Activity (HeLa): Non-toxic
IC50 (Measles morbillivirus): 9.6 µM
Ratio CC50/IC50 [1]: >170
Activity [2]: Non-toxic
Activity [4]: Non-toxic
Activity [5]: inactive
IC50 [6]: 3.32 µM
Activity [7]: inactive
Activity [8]: inactive
Activity [9]: Non-toxic
Activity (Tacaribe virus): inactive
Ratio CC50/IC50 [10]: >37
Activity (HEL): Non-toxic
IC50 (Yellow fever virus): 2.1 µM
CC50 [11]: > 355 µM
CC50 [14]: > 355 µM
Activity (Vaccinia virus): inactive
Activity (Hepatitis C virus): inactive
Activity (Rift Valley fever virus): inactive
